Test results from US3933918A, “2-Allyloxy-4-chloro-acetophenone” (Kyowa Hakko Kogyo Co., Ltd., priority 1973, dated 1976).
Structures can show the parent of a compound that is named as a salt.

Assays:
[1] = Acute toxicity in mice, determined as LD50; conditions: in vivo, mouse; for LD50 at 168 h: po, P.O., observed one week; for LD50 at 72 h: sc, S.C., observed 72 hours
Description: (§1) Acute Toxicity in Mice and in Rats -- Determined as LD50
a. More than 5 groups of male ddy-strain mice, each consisting of 10 animals weighing 18-20 g are used. The animals are given graded doses of the test compound or the standard compound by subcutaneous injection and are observed for 72 hours.
b. More than 6 groups of male dd-strain mice, each consisting of 20 animals weighing 18-20 g are used. The animals are given graded doses of the test compound or the standard compound orally and are observed for one week.
(§2) The LD50 is calculated according to the method of Litchfield and Wilcoxon [J. Pharmacol. & Exper. Therap. 96, 99 (1949)].

[2] = tested on: coughs induced by mechanical stimulation on the mucosa of the tracheal bifurcation; assay: Comparison of equi-active antitussive doses for various routes of administration in anesthetized dogs; format: in vivo, dog; conditions: for Site of antitussive action: central nerve: conclusion in words; for Dose giving nearly the same antitussive effect: dog
Description: a. Comparison of equi-active doses for various routes of administration
Five dogs weighing 8-10 kg are used. Polyethylene tubes are previously installed in the animals in the femoral vein, the vertebral artery and the cerebello-medullary cistern. The animals are lightly anesthetized by intraperitoneal injection of 20 mg/kg of pentobarbital sodium. The hydrochloride of 2-allyloxy-4-chloro-β-piperidinopropiophenone is given through the polyethylene tubes. Coughs are induced by mechanical stimulation on the mucosa of the tracheal bifurcation. The doses necessary to obtain the same degree of antitussive effect as that obtained by the administration through the femoral vein are determined.

[3] = tested on: coughs induced by electrical stimulation of central stump of the superior laryngeal nerve; assay: Antitussive effect on coughs induced by electrical stimulation of central stump of the superior laryngeal nerve in anesthetized cats; format: in vivo; conditions: Felis catus, iv, cat, i.v., fiducial limits (P = 0.05), read-out: AtD50 (50% antitussive dose)
Description: More than 4 groups of cats, each consisting of 6 animals of either sex weighing 2-3 kg are used. The animals are lightly anesthetized by intraperitoneal injection of 20 mg/kg of pentobarbital sodium. The test is conducted according to the method of Domenjoz (Arch. Exp. Path. u. Pharmakol, 215, 19 (1952)].
The changes of inner pressure of the trachea brought about by coughs are recorded. The animals are given graded doses of the test compound or the standard compound by intravenous injection.
The antitussive effect of the compounds is determined by the changes in both the amplitude and frequency of the cough curves and the duration of the changes. When the amplitude and/or the frequency of the coughs induced by a stimulus of moderate intensity are decreased by more than 20% as compared with those before administration of the drug and when the decrease lasts for more than 20 minutes, the effect is determined to be significant. On the basis of the criteria of evaluation, the AtD50 is calculated according to the method of Lichfield and Wilcoxon.

[4] = Acute toxicity in rats, determined as LD50; conditions: in vivo, po; rat, P.O., observed one week
Description: as §1
c. More than 5 groups of male Wistar strain rats, each consisting of 15 animals weighing 110-150 g are used. The animals are given graded doses of the test compound and the standard compound orally and are observed for one week.
as §2

[5] = tested on: coughs induced by mechanical stimulation of the tracheal mucosa; assay: Antitussive effect on coughs induced by mechanical stimulation of the tracheal mucosa in dogs ("Coughing dog" method); format: in vivo; conditions: for ED50: Canis lupus familiaris, iv, dog, mechanical stimulation, i.v., fiducial limits (P = 0.05), read-out: AtD50 (50% antitussive dose)
Description: a. Effect on coughs induced by mechanical stimulation of the tracheal mucosa in dogs
More than 4 groups of dogs, each consisting of 5 animals of either sex weighing 6-10 kg are used. The test is conducted according to "Coughing dog" method [Jap. J. Pharmacol. 2, 7-13 (1952); Pharm. Bull. (Japan) 2 298 (1954); and Jap. J. Pharmacol. 4 130 (1955)]. Coughs are induced by mechanical stimulation with a bristle stimulator made of pig bristles on the tracheal bifurcation through a chronically-built tracheal fistula.
Stimulation is applied by constantly and intensely moving the stimulator up and down 10 times for 20 seconds and the stimulation is repeated every 5 minutes. The changes of the inner pressure of the trachea brought about by coughs are recorded on a smoked paper. The animals are given graded doses of the test compound or the standard compound by intravenous injection.
The antitussive effect of the compounds is determined by the changes in both the amplitude and frequency of the cough curves on the smoked paper and the duration of such changes. When the amplitude and/or the frequency are decreased by more than 20% as compared with those before administration of the drug and when the decrease lasts for more than 20 minutes, the effect is determined to be significant. On the basis of the criteria of evaluation, the 50% antitussive dose (hereinafter referred to as AtD50) is calculated according to the method of Litchfield and Wilcoxon.

[6] = tested on: pulmonary stretch receptor; assay: Effect on the pulmonary stretch receptor impulses in guinea pigs; format: in vivo, guinea pig; conditions: for Time required to return to the level before treatment with drug / Change of voltage of stretch receptor impulses (as compared with that before treatment with drug): reduced to / Change of voltage of stretch receptor impulses (as compared with that before treatment with drug): guinea pig
Source text: b. Effect on the pulmonary stretch receptor impulses
Five guinea pigs weighing 400-600 g are used. The animals are anesthetized by subcutaneous injection of 1.2 g/kg of urethane and disposed in a supine position. The chest is opened under artificial ventilation. The left vagus nerve is sectioned at the cervical region and the peripheral stumps is placed on a bipolar platinum electrode. The impulses from the pulmonary stretch receptors are observed on an oscilloscope and recorded with a long-recording camera.
The animals are given graded doses of the hydrochloride of 2-allyloxy-4-chloro-β-piperidinopropiophenone by intravenous injection.
The action of the compound on a peripheral nerve is determined by the change of the voltage of the stretch receptor impulses.
As a control, the same test is conducted using benzonatate which is known as a peripherally acting antitussive.

[7] = tested on: coughs induced by mechanical stimulation of the tracheal mucosa; assay: Antitussive effect on coughs induced by mechanical stimulation of the tracheal mucosa in anesthetized cats ("Coughing cat" method); format: in vivo; conditions: for ED50: Felis catus, iv, cat, mechanical stimulation, i.v., fiducial limits (P = 0.05), read-out: AtD50 (50% antitussive dose)
Description: b. Effect on coughs induced by mechanical stimulation of the tracheal mucosa in anesthetized cats
More than 4 groups of cats, each consisting of 6 animals of either sex weighing 2-3 kg are used. The animals are lightly anesthetized by intraperitoneal injection of 20 mg/kg of pentobarbital sodium. The test is conducted according to "Coughing cat" method [Folia Pharmacol japon. 55 99 (1959)].
Coughs are induced in the same manner as described above except that a bristle stimulator made of whiskers of rabbit is used. The AtD50 is calculated in the same manner as described above.

## C=CCOc1cc(Cl)ccc1C(=O)CCN1CCCCC1 [2-Allyloxy-4-Chloro-β-Piperidinopropiophenone Hydrochloride]
[1]
  LD50 at 168 h: 240 mg/kg
  LD50 at 72 h: 105 mg/kg
[2]; Hydrochloride
  Site of antitussive action: central nerve: exerts its action on the central nerve
[2]; cerebello-medullary cistern
  Dose giving nearly the same antitussive effect: 0.06 to 0.1 mg/kg
[2]; femoral vein
  Dose giving nearly the same antitussive effect: 4.30 mg/kg
[2]; vertebral artery
  Dose giving nearly the same antitussive effect: 0.4 to 0.8 mg/kg
[2]; statement in words
  Ratio of effective doses for the three routes compared with codeine: almost the same as that obtained by using codeine
[3]
  ED50: 4.2 mg/kg
[4]
  LD50 at 168 h: 1020 mg/kg
[5]
  ED50: 3.3 mg/kg
[5]; dogs, statement in words
  Antitussive effect compared with codeine phosphate: antitussive effect equal to codeine phosphate
[6]; i.v., 5.0 mg/kg
  Time required to return to the level before treatment with drug: 10 to 20 min
[6]; i.v., 10.0 mg/kg
  Change of voltage of stretch receptor impulses (as compared with that before treatment with drug): reduced to: 1/2
  Time required to return to the level before treatment with drug: ~30 min
[6]; i.v., 1.0-2.0 mg/kg
  Change of voltage of stretch receptor impulses (as compared with that before treatment with drug): none
[6]; statement in words
  Effect on the impulses of the pulmonary stretch receptor: repress the impulses of the pulmonary stretch receptor
[7]
  ED50: 4.8 mg/kg
[7]; cats, statement in words
  Antitussive effect compared with codeine phosphate: antitussive effect equal to codeine phosphate

## C=CCOc1cc(Cl)ccc1C(=O)CCN1CCCCC1 [2-allyloxy-4-chloro-β-piperidinopropiophenone]
[2]
  Site of antitussive action: central nerve: acts centrally
[6]; conclusion in words
  Site of antitussive action: peripheral nerves: exerts a considerable action on peripheral nerves

## CCCCNc1ccc(C(=O)OCCOCCOCCOCCOCCOCCOCCOCCOCCOC)cc1 [Benzonatate]
[6]; 1.0 mg/kg
  Change of voltage of stretch receptor impulses (as compared with that before treatment with drug): reduced to: 3/4
  Time required to return to the level before treatment with drug: 10 min
[6]; 2.0 mg/kg
  Change of voltage of stretch receptor impulses (as compared with that before treatment with drug): reduced to: 1/2
  Time required to return to the level before treatment with drug: 30 min
[6]; 4.0 mg/kg
  Change of voltage of stretch receptor impulses (as compared with that before treatment with drug): reduced to: zero
  Time required to return to the level before treatment with drug: 30 to 40 min
[6]; 0.1-0.5 mg/kg
  Change of voltage of stretch receptor impulses (as compared with that before treatment with drug): none

## COc1ccc2c3c1O[C@H]1[C@@H](O)C=C[C@H]4[C@@H](C2)N(C)CC[C@@]341 [Codeine phosphate, reference compound]
[1]
  LD50 at 168 h: 729 mg/kg
  LD50 at 72 h: 191 mg/kg
[3]
  ED50: 2.1 mg/kg
[4]
  LD50 at 168 h: 807 mg/kg
[5]
  ED50: 2.5 mg/kg
[7]
  ED50: 2.3 mg/kg
